Measurements: US11987588B2, “Modulators of the beta-3 adrenergic receptor useful for the treatment or prevention of heart failure and disorders related thereto” (Arena Pharmaceuticals, Inc., priority 2017, dated 2024)

The molecules below were run against Beta-3 Adrenergic Receptor (Homo sapiens (Human), UniProt P13945) (assay: Homogeneous Time-Resolved Fluorescence (HTRF) cAMP antagonist assay, IC50 determination). Settings: CHO-K1 cells stably expressing recombinant receptor, isoproterenol at EC90.
Beta-3 Adrenergic Receptor, sequence (P13945 whole entry, species assumed): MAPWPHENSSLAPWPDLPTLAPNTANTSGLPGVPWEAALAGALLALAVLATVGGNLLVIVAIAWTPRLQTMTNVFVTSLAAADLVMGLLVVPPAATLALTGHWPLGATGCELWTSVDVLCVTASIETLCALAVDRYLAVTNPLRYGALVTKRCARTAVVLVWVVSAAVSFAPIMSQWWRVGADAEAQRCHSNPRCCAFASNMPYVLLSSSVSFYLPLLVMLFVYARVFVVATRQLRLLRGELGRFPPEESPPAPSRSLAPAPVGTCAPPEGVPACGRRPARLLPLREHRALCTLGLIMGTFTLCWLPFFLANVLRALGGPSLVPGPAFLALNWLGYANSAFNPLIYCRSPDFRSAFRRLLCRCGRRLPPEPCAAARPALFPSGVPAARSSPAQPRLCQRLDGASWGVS
Type: cell-based
Procedure, shortened: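 CHO-K1 cells stably expressing the recombinant receptor were preincubated with compound (10-point, 5-fold dilutions; top final typically 10 or 100 μM) in PBS with 1 mM IBMX, then stimulated with isoproterenol at its EC90 for 1 h at room temperature. cAMP was read by HTRF against an on-plate standard curve.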
`COCCCNS(=O)(=O)c1cccc(OC[C@@H](O)CNC2COC3(CCN(S(=O)(=O)c4ccc5ccccc5c4)CC3)C2)c1` (stereo partly drawn) [Compound 75, 3-((2S)-2-hydroxy-3-(8-(naphthalen-2-ylsulfonyl)-1-oxa-8-azaspiro[4.5]decan-3-ylamino)propoxy)-N-(3-methoxypropyl)benzenesulfonamide] gave an IC50 of 39.8 nM.
`CNS(=O)(=O)c1cccc(OC[C@@H](O)CNC2COC3(CCN(S(=O)(=O)c4cccc(-c5ccn(C)c5)c4)CC3)C2)c1` (stereo partly drawn) [Compound 76, 3-((2S)-2-hydroxy-3-(8-(3-(1-methyl-1H-pyrrol-3-yl)phenylsulfonyl)-1-oxa-8-azaspiro[4.5]decan-3-ylamino)propoxy)-N-methylbenzenesulfonamide] showed an IC50 of 26.5 nM.
In the case of `CNS(=O)(=O)c1cccc(OC[C@@H](O)CNC2COC3(CCN(S(=O)(=O)c4cccc(-c5cnn(Cc6ccccc6)c5)c4)CC3)C2)c1` (stereo partly drawn) [Compound 77, 3-((2S)-3-(8-(3-(1-benzyl-1H-pyrazol-4-yl)phenylsulfonyl)-1-oxa-8-azaspiro[4.5]decan-3-ylamino)-2-hydroxypropoxy)-N-methylbenzenesulfonamide], the IC50 is reported as 17.5 nM.
`CNS(=O)(=O)c1cccc(OC[C@@H](O)CNC2COC3(CCN(S(=O)(=O)c4cccc(-c5ccco5)c4)CC3)C2)c1` (stereo partly drawn) [Compound 78, 3-((2S)-3-(8-(3-(furan-2-yl)phenylsulfonyl)-1-oxa-8-azaspiro[4.5]decan-3-ylamino)-2-hydroxypropoxy)-N-methylbenzenesulfonamide] gave an IC50 of 20.7 nM.
`CNS(=O)(=O)c1cccc(OC[C@@H](O)CNC2COC3(CCN(S(=O)(=O)c4cccc(-c5ccc(CN)cc5)c4)CC3)C2)c1` (stereo partly drawn) [Compound 79, 3-((2S)-3-(8-(4′-(aminomethyl)biphenyl-3-ylsulfonyl)-1-oxa-8-azaspiro[4.5]decan-3-ylamino)-2-hydroxypropoxy)-N-methylbenzenesulfonamide] showed an IC50 of 7.15 nM.
Molecule `CCCn1cc(-c2cccc(S(=O)(=O)N3CCC4(CC3)CC(NC[C@H](O)COc3cccc(S(=O)(=O)NC)c3)CO4)c2)cn1` (stereo partly drawn) [Compound 80, 3-((2S)-2-hydroxy-3-(8-(3-(1-propyl-1H-pyrazol-4-yl)phenylsulfonyl)-1-oxa-8-azaspiro[4.5]decan-3-ylamino)propoxy)-N-methylbenzenesulfonamide] has an IC50 of 14.3 nM.
`CNS(=O)(=O)c1cccc(OC[C@@H](O)CNC2COC3(CCN(S(=O)(=O)c4cccc(-c5cnn(CC(C)C)c5)c4)CC3)C2)c1` (stereo partly drawn) [Compound 81, 3-((2S)-2-hydroxy-3-(8-(3-(1-isobutyl-1H-pyrazol-4-yl)phenylsulfonyl)-1-oxa-8-azaspiro[4.5]decan-3-ylamino)propoxy)-N-methylbenzenesulfonamide] was tested, and the IC50 was 16.6 nM.
`CNS(=O)(=O)c1cccc(OC[C@@H](O)CNC2COC3(CCN(S(=O)(=O)c4cccc(-c5cnn(CC6CC6)c5)c4)CC3)C2)c1` (stereo partly drawn) [Compound 82, 3-((2S)-3-(8-(3-(1-(cyclopropylmethyl)-1H-pyrazol-4-yl)phenylsulfonyl)-1-oxa-8-azaspiro[4.5]decan-3-ylamino)-2-hydroxypropoxy)-N-methylbenzenesulfonamide] gave an IC50 of 15.9 nM.
In the case of `CNS(=O)(=O)c1cccc(OC[C@@H](O)CNC2COC3(CCN(S(=O)(=O)c4cccc(-c5cccc(N(C)C)c5)c4)CC3)C2)c1` (stereo partly drawn) [Compound 83, 3-((2S)-3-(8-(3′-(dimethylamino)biphenyl-3-ylsulfonyl)-1-oxa-8-azaspiro[4.5]decan-3-ylamino)-2-hydroxypropoxy)-N-methylbenzenesulfonamide], the IC50 is reported as 99.9 nM.
`CNS(=O)(=O)c1cccc(OC[C@@H](O)CNC2COC3(CCN(S(=O)(=O)c4cccc(-c5cc[nH]n5)c4)CC3)C2)c1` (stereo partly drawn) [Compound 84, 3-((2S)-3-(8-(3-(1H-pyrazol-3-yl)phenylsulfonyl)-1-oxa-8-azaspiro[4.5]decan-3-ylamino)-2-hydroxypropoxy)-N-methylbenzenesulfonamide] was tested, and the IC50 was 9.09 nM.
`CNS(=O)(=O)c1cccc(OC[C@@H](O)CNC2COC3(CCN(S(=O)(=O)c4cccc(-c5ccc(S(N)(=O)=O)cc5)c4)CC3)C2)c1` (stereo partly drawn) [Compound 85, 3′-(3-((S)-2-hydroxy-3-(3-(N-methylsulfamoyl)phenoxy)propylamino)-1-oxa-8-azaspiro[4.5]decan-8-ylsulfonyl)biphenyl-4-sulfonamide] was tested, and the IC50 was 9.73 nM.
`CNS(=O)(=O)c1cccc(OC[C@@H](O)CNC2COC3(CCN(S(=O)(=O)c4cccc(-c5ccc(NS(C)(=O)=O)cc5)c4)CC3)C2)c1` (stereo partly drawn) [Compound 86, 3-((2S)-2-hydroxy-3-(8-(4′-(methylsulfonamido)biphenyl-3-ylsulfonyl)-1-oxa-8-azaspiro[4.5]decan-3-ylamino)propoxy)-N-methylbenzenesulfonamide] was tested, and the IC50 was 9.36 nM.
With `CNS(=O)(=O)c1cccc(OC[C@@H](O)CNC2COC3(CCN(S(=O)(=O)c4cccc(-c5ccc(CC(=O)O)cc5)c4)CC3)C2)c1` (stereo partly drawn) [Compound 87, 2-(3′-(3-((S)-2-hydroxy-3-(3-(N-methylsulfamoyl)phenoxy)propylamino)-1-oxa-8-azaspiro[4.5]decan-8-ylsulfonyl)biphenyl-4-yl)acetic acid] the IC50 was 66.1 nM.
`CNS(=O)(=O)c1cccc(OC[C@@H](O)CNC2COC3(CCN(S(=O)(=O)c4cccc(-c5cccnc5)c4)CC3)C2)c1` (stereo partly drawn) [Compound 88, 3-((2S)-2-hydroxy-3-(8-(3-(pyridin-3-yl)phenylsulfonyl)-1-oxa-8-azaspiro[4.5]decan-3-ylamino)propoxy)-N-methylbenzenesulfonamide] was tested, and the IC50 was 9.82 nM.
`O=S(=O)(NC1CC(F)(F)C1)c1cccc(OC[C@@H](O)CNC2COC3(CCN(S(=O)(=O)c4ccc5ccccc5c4)CC3)C2)c1` (stereo partly drawn) [Compound 89, N-(3,3-difluorocyclobutyl)-3-((2S)-2-hydroxy-3-(8-(naphthalen-2-ylsulfonyl)-1-oxa-8-azaspiro[4.5]decan-3-ylamino)propoxy)benzenesulfonamide] showed an IC50 of 429 nM.
`CN(C1CC1)S(=O)(=O)c1cccc(OC[C@@H](O)CNC2COC3(CCN(S(=O)(=O)c4ccc5ccccc5c4)CC3)C2)c1` (stereo partly drawn) [Compound 90, N-cyclopropyl-3-((2S)-2-hydroxy-3-(8-(naphthalen-2-ylsulfonyl)-1-oxa-8-azaspiro[4.5]decan-3-ylamino)propoxy)-N-methylbenzenesulfonamide] was tested, and the IC50 was 49.2 nM.
With `NCCNS(=O)(=O)c1cccc(OC[C@@H](O)CNC2COC3(CCN(S(=O)(=O)c4ccc5ccccc5c4)CC3)C2)c1` (stereo partly drawn) [Compound 91, N-(2-aminoethyl)-3-((2S)-2-hydroxy-3-(8-(naphthalen-2-ylsulfonyl)-1-oxa-8-azaspiro[4.5]decan-3-ylamino)propoxy)benzenesulfonamide] the IC50 was 1120 nM.
Molecule `CNC(=O)[C@@H](NS(=O)(=O)c1cccc(OC[C@@H](O)CNC2COC3(CCN(S(=O)(=O)c4ccc5ccccc5c4)CC3)C2)c1)[C@@H](C)O` (stereo partly drawn) [Compound 92, (2S,3R)-3-hydroxy-2-(3-((2S)-2-hydroxy-3-(8-(naphthalen-2-ylsulfonyl)-1-oxa-8-azaspiro[4.5]decan-3-ylamino)propoxy)phenylsulfonamido)-N-methylbutanamide] has an IC50 of 1990 nM.
In the case of `C[C@@H](NS(=O)(=O)c1cccc(OC[C@@H](O)CNC2COC3(CCN(S(=O)(=O)c4ccc5ccccc5c4)CC3)C2)c1)C1CC1` (stereo partly drawn) [Compound 93, N—((R)-1-cyclopropylethyl)-3-((2S)-2-hydroxy-3-(8-(naphthalen-2-ylsulfonyl)-1-oxa-8-azaspiro[4.5]decan-3-ylamino)propoxy)benzenesulfonamide], the IC50 is reported as 112 nM.
